Results taken from patent publication US20080221086A1, “Novel Inhibitors of Glutaminyl Cyclase” (PROBIODRUG AG, priority 2006, published 2008).
Where two headings read alike, the source gives them in different places.

Biological target: hQC (Homo sapiens, UniProt Q16769)
Assay: Fluorometric assay of glutaminyl cyclase (QC) inhibition, H-Gln-βNA or H-Gln-AMC substrate
Format: biochemical
Description: All compounds were immediately tested regarding their activity as hQC inhibitors.
The purity of the compounds was determined by HPLC-MS. The IC50 value against hQC was measured using the fluorescent assay.
All measurements were performed with a BioAssay Reader HTS-7000Plus for microplates (Perkin Elmer) at 30° C. QC activity was evaluated fluorometrically using H-Gln-βNA. The samples consisted of 0.2 mM fluorogenic substrate, 0.25 U pyroglutamyl aminopeptidase (Unizyme, Hørsholm, Denmark) in 0.2 M Tris/HCl, pH 8.0 containing 20 mM EDTA and an appropriately diluted aliquot of QC in a final volume of 250 μl. Excitation/emission wavelengths were 320/410 nm. The assay reactions were initiated by addition of glutaminyl cyclase. QC activity was determined from a standard curve of β-naphthylamine under assay conditions. One unit is defined as the amount of QC catalyzing the formation of 1 μmol pGlu-βNA from H-Gln-βNA per minute under the described conditions.
In a second fluorometric assay, QC was activity was determined using H-Gln-AMC as substrate. Reactions were carried out at 30° C. utilizing the NOVOStar reader for microplates (BMG labtechnologies). The samples consisted of varying concentrations of the fluorogenic substrate, 0.1 U pyroglutamyl aminopeptidase (Qiagen) in 0.05 M Tris/HCl, pH 8.0 containing 5 mM EDTA and an appropriately diluted aliquot of QC in a final volume of 250 μl. Excitation/emission wavelengths were 380/460 nm. The assay reactions were initiated by addition of glutaminyl cyclase. QC activity was determined from a standard curve of 7-amino-4-methylcoumarin under assay conditions. The kinetic data were evaluated using GraFit software.
For inhibitor testing, the sample composition was the same as described above, except of the putative inhibitory compound added. For a rapid test of QC-inhibition, samples contained 4 mM of the respective inhibitor and a substrate concentration at 1 KM. For detailed investigations of the inhibition and determination of Ki-values, influence of the inhibitor on the auxiliary enzymes was investigated first. In every case, there was no influence on either enzyme detected, thus enabling the reliable determination of the QC inhibition. The inhibitory constant was evaluated by fitting the set of progress curves to the general equation for competitive inhibition using GraFit software.

Sequence of hQC (Q16769 29-361): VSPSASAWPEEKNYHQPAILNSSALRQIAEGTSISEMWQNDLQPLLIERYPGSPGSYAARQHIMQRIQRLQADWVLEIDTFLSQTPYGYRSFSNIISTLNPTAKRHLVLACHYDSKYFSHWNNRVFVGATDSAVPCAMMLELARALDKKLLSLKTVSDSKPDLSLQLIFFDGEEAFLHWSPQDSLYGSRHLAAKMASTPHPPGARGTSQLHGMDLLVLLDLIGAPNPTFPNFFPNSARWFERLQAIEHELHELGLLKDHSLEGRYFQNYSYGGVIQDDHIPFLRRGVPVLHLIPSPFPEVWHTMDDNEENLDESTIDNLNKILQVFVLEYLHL

Row | SMILES | IC50 (read-out: IC50) | IC50 (compound from preparative synthesis, purified by chromatography, fluorescent assay, read-out: IC50 hQC)
1 | S=C1N/C(=N\c2cc(Cl)ccc2Cl)C(c2ccc(Cl)cc2)N1c1ccc2[nH]cnc2c1 (stereo not shown) [Compound 194, 1-(1H-Benzoimidazol-5-yl)-5-(4-chloro-phenyl)-4-2,5-dichloro-phenylimino-imidazolidine-2-thione] | 6.7 µM | –
2 | O=C1N/C(=N\c2ccc3c(c2)OCCO3)C(c2ccc(Cl)c(F)c2)N1CCCn1ccnc1 (stereo not shown) [Compound 33, 5-(4-Chloro-3-fluoro-phenyl)-4-2,3-dihydro-benzo1,4dioxin-6-ylimino-1-(3-imidazol-1-yl-propyl)-imidazolidin-2-one] | 4.9 µM | –
3 | COc1ccc(C2C(=NCC(=O)N3CCSCC3)NC(=S)N2c2ccc3[nH]cnc3c2)c(F)c1 (stereo not shown) [Compound 225, 2-(1-(1H-Benzo[d]imidazol-5-yl)-5-(2-fluoro-4-methoxyphenyl)-2-thioxoimidazolidin-4-ylideneamino)-1-thiomorpholinoethanone] | 6.7 µM | –
4 | O=C(C/N=C1/NC(=O)N(CCCn2ccnc2)C1c1ccc(F)cc1)N1CCc2ccccc2C1 (stereo not shown) [Compound 78, 4-2-(3,4-Dihydro-1H-isoquinolin-2-yl)-2-oxo-ethylimino-5-(4-fluoro-phenyl)-1-(3-imidazol-1-yl-propyl)-imidazolidin-2-one] | 3.1 µM | –
5 | O=C1N/C(=N\CCCN2CCOCC2)C(c2ccnc3ccccc23)N1c1ccc2[nH]cnc2c1 (stereo not shown) [Compound 212, 1-(1H-Benzoimidazol-5-yl)-4-3-morpholin-4-yl-propylimino-5-quinolin-4-yl-imidazolidin-2-one] | 4.9 µM | –
6 | S=C1N/C(=N\C2CCc3ccccc32)C(c2ccc(Br)cc2)N1c1ccc2[nH]cnc2c1 (stereo not shown) [Compound 146, 1-(1H-Benzoimidazol-5-yl)-5-(4-bromo-phenyl)-4-indan-1-ylimino-imidazolidine-2-thione] | 1.3 µM | –
7 | O=C1N/C(=N\C(Cc2ccccc2)c2ccccc2)C(c2cc3c(cc2Br)OCO3)N1c1ccc2[nH]cnc2c1 (stereo not shown) [Compound 326, 1-(1H-Benzoimidazol-5-yl)-5-(6-bromo-benzo1,3dioxol-5-yl)-4-1,2-diphenyl-ethylimino-imidazolidin-2-one] | 0.004 µM | –
8 | Fc1ccc(Cl)c(F)c1C1/C(=N/c2c(Cl)cccc2Cl)NC(=S)N1c1ccc2nc[nH]c2c1 (stereo not shown) [Compound 188, 1-(3H-Benzoimidazol-5-yl)-5-(3-chloro-2,6-difluoro-phenyl)-4-2,6-dichloro-phenylimino-imidazolidine-2-thione] | 6.7 µM | –
9 | O=C1N/C(=N/CCc2c[nH]c3ccccc23)C(c2cccc(F)c2)N1CCCn1ccnc1 (stereo not shown) [Compound 62, 5-(3-Fluoro-phenyl)-1-(3-imidazol-1-yl-propyl)-4-2-(1H-indol-3-yl)-ethylimino-imidazolidin-2-one] | 3.1 µM | –
10 | CC1=CC(C)C(C2/C(=N/C3CCc4ccccc43)NC(=O)N2c2ccc3[nH]cnc3c2)CC1 (stereo not shown) [Compound 193, 1-(1H-Benzoimidazol-5-yl)-5-(2,4-dimethyl-cyclohex-3-enyl)-4-indan-1-ylimino-imidazolidin-2-one] | 4.9 µM | –
11 | O=C(C/N=C1\NC(=O)N(c2ccc3[nH]cnc3c2)C1c1c(F)ccc(Cl)c1F)N1CCCC(O)C1 (stereo not shown) [Compound 154, 1-(1H-Benzoimidazol-5-yl)-5-(3-chloro-2,6-difluoro-phenyl)-4-2-(3-hydroxy-piperidin-1-yl)-2-oxo-ethylimino-imidazolidin-2-one] | 0.4 µM | –
12 | CCc1ccccc1/N=C1\NC(=S)N(c2ccc3nc[nH]c3c2)C1C1CCC(C)=CC1C (stereo not shown) [Compound 288, 1-(3H-Benzoimidazol-5-yl)-5-(2,4-dimethyl-cyclohex-3-enyl)-4-2-ethyl-phenylimino-imidazolidine-2-thione] | 7.6 µM | –
13 | O=C1N/C(=N\C2CCCC2)C(c2cc(Br)cc(Br)c2)N1c1ccc2[nH]cnc2c1 (stereo not shown) [Compound 186, 1-(1H-Benzoimidazol-5-yl)-4-cyclopentylimino-5-(3,5-dibromo-phenyl)-imidazolidin-2-one] | 0.004 µM | –
14 | Cc1ccc(C2/C(=N\Cc3ccc4[nH]ccc4c3)NC(=S)N2c2ccc3[nH]cnc3c2)cc1 (stereo not shown) [Compound 145, 1-(1H-Benzoimidazol-5-yl)-4-1H-indol-5-ylmethylimino-5-p-tolyl-imidazolidine-2-thione] | 4 µM | –
15 | O=C1N/C(=N/CCc2c[nH]c3ccccc23)C(c2ccccc2F)N1CCCn1ccnc1 (stereo not shown) [Compound 61, 5-(2-Fluoro-phenyl)-1-(3-imidazol-1-yl-propyl)-4-(2-(1H-indol-3-yl)-ethylimino)-imidazolidin-2-one] | 2.2 µM | 0.452 µM
16 | CC1=CC(C)C(C2/C(=N/CC(=O)N3CCCN(C)CC3)NC(=O)N2c2ccc3[nH]cnc3c2)CC1 (stereo not shown) [Compound 243, 1-(1H-Benzoimidazol-5-yl)-5-(2,4-dimethyl-cyclohex-3-enyl)-4-2-(4-methyl-1,4diazepan-1-yl)-2-oxo-ethylimino-imidazolidin-2-one] | 5.8 µM | –
17 | O=C1N/C(=N\C2CCCCC2)C(c2ccccc2Cl)N1CCCn1ccnc1 (stereo not shown) [Compound 6, 5-(2-Chloro-phenyl)-4-cyclohexylimino-1-(3-imidazol-1-yl-propyl)-imidazolidin-2-one] | 7.2 µM | –
18 | O=C1N/C(=N\C2CCc3ccccc32)C(c2ccnc3ccccc23)N1c1ccc2[nH]cnc2c1 (stereo not shown) [Compound 121, 1-(1H-Benzoimidazol-5-yl)-4-indan-1-ylimino-5-quinolin-4-yl-imidazolidin-2-one] | 0.4 µM | –
19 | Cc1ccc(C2/C(=N/C3CCCCCC3)NC(=O)N2c2ccc3nc[nH]c3c2)c(C)c1 (stereo not shown) [Compound 283, 1-(3H-Benzoimidazol-5-yl)-4-cycloheptylimino-5-(2,4-dimethyl-phenyl)-imidazolidin-2-one] | 0.4 µM | –
20 | O=C1N/C(=N/CCc2c[nH]c3ccccc23)C(C2CC2)N1CCCn1ccnc1 (stereo not shown) [Compound 57, 5-Cyclopropyl-1-(3-imidazol-1-yl-propyl)-4-2-(1H-indol-3-yl)-ethylimino-imidazolidin-2-one] | 5.8 µM | –
21 | O=C1N/C(=N/Cc2ccc(Cl)cc2)C(c2cc(F)cc(F)c2)N1CCCn1ccnc1 (stereo not shown) [Compound 19, 4-4-Chloro-benzylimino-5-(3,5-difluoro-phenyl)-1-(3-imidazol-1-yl-propyl)-imidazolidin-2-one] | 4 µM | –
22 | O=C1N/C(=N/Cn2nnc3ccccc32)C(c2ccc(Cl)cc2)N1c1ccc2[nH]cnc2c1 (stereo not shown) [Compound 128, 1-(1H-Benzoimidazol-5-yl)-4-benzotriazol-1-ylmethylimino-5-(4-chloro-phenyl)-imidazolidin-2-one] | 3.1 µM | –
23 | Cc1ccc(C2/C(=N/C(C)(C)CC(C)(C)C)NC(=S)N2c2ccc3nc[nH]c3c2)c(C)c1 (stereo not shown) [Compound 332, 1-(3H-Benzoimidazol-5-yl)-5-(2,4-dimethyl-phenyl)-4-1,1,3,3-tetramethyl-butylimino-imidazolidine-2-thione] | 9.4 µM | –
24 | O=C(C/N=C1/NC(=O)N(c2ccc3[nH]cnc3c2)C1c1cc(Br)cs1)N1CCCCC1 (stereo not shown) [Compound 119, 1-(1H-Benzoimidazol-5-yl)-5-(4-bromo-thiophen-2-yl)-4-2-oxo-2-piperidin-1-yl-ethylimino-imidazolidin-2-one] | 6.7 µM | –
25 | O=C1N/C(=N\C2CCCC2)C(c2cc(F)cc(F)c2)N1c1ccc2[nH]cnc2c1 (stereo not shown) [Compound 244, 1-(1H-Benzoimidazol-5-yl)-4-cyclopentylimino-5-(3,5-difluoro-phenyl)-imidazolidin-2-one] | 0.4 µM | –
26 | O=C1N/C(=N\C2CCCCC2)C(C2CCC=CO2)N1CCCn1ccnc1 (stereo not shown) [Compound 2, 4-Cyclohexylimino-5-(3,4-dihydro-2H-pyran-2-yl)-1-(3-imidazol-1-yl-propyl)-imidazolidin-2-one] | 5 µM | –
27 | O=C1N/C(=N/Cc2ccc(Cl)cc2)C(c2ccc(Cl)c(F)c2)N1CCCn1ccnc1 (stereo not shown) [Compound 20, 4-4-Chloro-benzylimino-5-(4-chloro-3-fluoro-phenyl)-1-(3-imidazol-1-yl-propyl)-imidazolidin-2-one] | 7.6 µM | –
28 | O=C1N/C(=N\C(c2ccccc2)c2ccccc2)C(c2ccccc2)N1CCCn1ccnc1 (stereo not shown) [Compound 81, 4-Benzhydrylimino-1-(3-imidazol-1-yl-propyl)-5-phenyl-imidazolidin-2-one] | 5.8 µM | –
29 | CSc1ccc(C2C(=NCn3nnc4ccccc43)NC(=O)N2c2ccc3[nH]cnc3c2)cc1 (stereo not shown) [Compound 181, 1-(1H-Benzoimidazol-5-yl)-4-benzotriazol-1-ylmethylimino-5-(4-methylsulfanyl-phenyl)-imidazolidin-2-one] | 1.3 µM | –
30 | Cc1ccc2occ(C3/C(=N/C4CCCCC4O)NC(=O)N3c3ccc4[nH]cnc4c3)c(=O)c2c1 (stereo not shown) [Compound 127, 1-(1H-Benzoimidazol-5-yl)-4-2-hydroxy-cyclohexylimino-5-(6-methyl-4-oxo-4H-chromen-3-yl)-imidazolidin-2-one] | 4 µM | –
